Earlier results on 2 molecules are cited in patent US9700574B2, “Use of secnidazole in treatment of dental infections” (ATHENA PHARMACEUTIQUES SAS, priority 2011, dated 2017).

Molecules are shown by their SMILES.

The conditions of series [1]: in vivo.
The next series relates to tested microorganisms. The note with it: in vitro; oro-dental gel for the periodontal pocket; Drug Development and Industrial Pharmacy 34:1356-1367, 2008.

Regarding `CC[C@H]1OC(=O)[C@H](C)[C@@H](O[C@H]2C[C@@](C)(OC)[C@@H](O)[C@H](C)O2)[C@H](C)[C@@H](O[C@@H]2O[C@H](C)C[C@H](N(C)C)[C@H]2O)[C@](C)(O)C[C@@H](C)CN(C)[C@H](C)[C@@H](O)[C@]1(C)O` [azithromycine], the half-life entry in series [1] is on record as “about 20 hours”.

As to `Cc1ncc([N+](=O)[O-])n1CC(C)O` (stereo not drawn) [secnidazole, alpha-2-dimethyl-5-nitro-1H-imidazole-1-ethanol], in series [1], the half-life result is recorded as “about 25 hours”. Moreover, in the series on tested microorganisms, the “minimal inhibition concentration for the tested microorganisms” value is 0.125-5 μg of secnidazole per ml of gel.
